Results: the supplement of paper PMC11061612

How the values were obtained:
Assay in all cases: Bliss excess, mean over the matrix (fraction); higher = more synergy
[1] = tested on: MOG-G-UVW (Low Grade Glioma)
Method in brief: (§1)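 Cell lines in DMEM/F12 or RPMI with 10% FBS were plated in 1536-well plates, held 24 hours at 37°C, 5% CO2, then given two-drug dose matrices for 72 hours (DMSO typically 0.2%). Viability was read by CellTiter-Glo 2.0 luminescence and scaled as inhibition from 0 (vehicle wells) to 1 (blank wells). Combination Emax is the second-highest inhibition in the matrix; Bliss excess is observed combination effect minus expected EA + EB − EA·EB, EA and EB being single-agent effects.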

[2] = tested on: ME-180 (Cervical Carcinoma)
Method in brief: as §1

[3] = tested on: MDA-MB-453 (Breast Carcinoma)
Method in brief: as §1

[4] = tested on: KMRC-1 (Kidney Carcinoma)
Method in brief: as §1

[5] = tested on: SNU-387 (Hepatocellular Carcinoma)
Method in brief: as §1

[6] = tested on: Mo-T (Other Blood Carcinomas)
Method in brief: as §1

[7] = tested on: OE33 (Esophageal Adenocarcinoma)
Method in brief: as §1

[8] = tested on: COLO-668 (Small Cell Lung Carcinoma)
Method in brief: as §1

[9] = tested on: NCI-H522 (Lung Adenocarcinoma)
Method in brief: as §1

[10] = tested on: KGN (Other Solid Carcinomas)
Method in brief: as §1

[11] = tested on: NCI-H1355 (Lung Adenocarcinoma)
Method in brief: as §1

[12] = tested on: SKN (Other Solid Carcinomas)
Method in brief: as §1

[13] = tested on: NCI-H1993 (Lung Adenocarcinoma)
Method in brief: as §1

[14] = tested on: A4-Fuk (B-Lymphoblastic Leukemia)
Method in brief: as §1

[15] = tested on: SW872 (Other Solid Carcinomas)
Method in brief: as §1

[16] = tested on: ML-2 (Acute Myeloid Leukemia)
Method in brief: as §1

[17] = tested on: EFO-21 (Ovarian Carcinoma)
Method in brief: as §1

[18] = tested on: MOLT-4 (T-Lymphoblastic Leukemia)
Method in brief: as §1

[19] = tested on: SW982 (Other Solid Carcinomas)
Method in brief: as §1

[20] = tested on: DU-145 (Prostate Carcinoma)
Method in brief: as §1

Compound	Bliss excess [1]	Bliss excess [2]	Bliss excess [3]	Bliss excess [4]	Bliss excess [5]	Bliss excess [6]	Bliss excess [7]	Bliss excess [8]	Bliss excess [9]	Bliss excess [10]	Bliss excess [11]	Bliss excess [12]	Bliss excess [13]	Bliss excess [14]	Bliss excess [15]	Bliss excess [16]	Bliss excess [17]	Bliss excess [18]	Bliss excess [19]	Bliss excess [20]
CN(CCO)CC[C@H](CSc1ccccc1)Nc1ccc(S(=O)(=O)NC(=O)c2ccc(N3CCC([C@@H](O)c4ccccc4-c4ccc(Cl)cc4)CC3)cc2)cc1S(=O)(=O)C(F)(F)F [AZD4320] + CCN(CCO)CCCOc1ccc2c(Nc3cc(CC(=O)Nc4cccc(F)c4)[nH]n3)ncnc2c1 [AZD2811] (first compound max 1 µM, 7x7, partner max 1 µM)	0.03	0.0343	0.0154	-0.0359	-0.0127	-0.003	-0.0398	0.0302	-0.0471	-0.0739	-0.0133	0.0383	-0.0043	0.0624	-0.0215	0.0557	-0.0616	0.0322	0.0447	-0.0341
Cc1cc2ncnn2cc1Nc1ncc2c(n1)n(C1CCOCC1)c(=O)n2C [AZD7648] + O=C(c1cc(Cc2n[nH]c(=O)c3ccccc23)ccc1F)N1CCN(C(=O)C2CC2)CC1 [Olaparib] (first compound max 10 µM, 7x7, partner max 10 µM)	-0.0052	-0.0432	-0.0144	-0.015	-0.0303	-0.049	-0.0359	-0.0105	-0.0308	-0.0384	-0.0538	-0.0448	-0.0321	-0.038	-0.0126	-0.0218	-0.045	-0.0277	0.0002	-0.026
CN(CCO)CC[C@H](CSc1ccccc1)Nc1ccc(S(=O)(=O)NC(=O)c2ccc(N3CCC([C@@H](O)c4ccccc4-c4ccc(Cl)cc4)CC3)cc2)cc1S(=O)(=O)C(F)(F)F [AZD4320] + Cn1cnc2c(F)c(Nc3ccc(Br)cc3Cl)c(C(=O)NOCCO)cc21 [Selumetinib] (first compound max 1 µM, 7x7, partner max 3 µM)	-0.0034	0.0771	-0.0218	0.0167	0.0149	0.0434	0.0249	0.114	-0.0181	0.0113	0.0529	-0.0209	-0.0307	0.073	0.0556	0.0723	-0.0084	0.0365	-0.0042	0.0057
CN(CCO)CC[C@H](CSc1ccccc1)Nc1ccc(S(=O)(=O)NC(=O)c2ccc(N3CCC([C@@H](O)c4ccccc4-c4ccc(Cl)cc4)CC3)cc2)cc1S(=O)(=O)C(F)(F)F [AZD4320] + Cc1cc2ncnn2cc1Nc1ncc2c(n1)n(C1CCOCC1)c(=O)n2C [AZD7648] (first compound max 1 µM, 7x7, partner max 10 µM)	-0.0412	-0.007	-0.0409	-0.0618	-0.041	-0.0057	-0.0489	-0.0431	-0.0351	-0.103	-0.052	-0.0249	-0.0205	-0.0211	-0.0262	-0.0141	-0.0461	0.0422	0.0065	-0.0355
Cc1cc2ncnn2cc1Nc1ncc2c(n1)n(C1CCOCC1)c(=O)n2C [AZD7648] + COc1cc([C@@H]2c3cc4c(cc3[C@@H](O[C@@H]3O[C@@H]5CO[C@@H](C)O[C@H]5[C@H](O)[C@H]3O)[C@H]3COC(=O)[C@H]23)OCO4)cc(OC)c1O [Etoposide] (first compound max 10 µM, 7x7, partner max 10 µM)	0.164	0.12	-0.0136	0.0859	-0.0126	0.0928	0.0247	0.0429	0.0178	0.114	0.0529	0.0503	-0.0083	-0.0187	0.106	0.125	0.0562	0.167	0.142	0.0001
Cc1cc2ncnn2cc1Nc1ncc2c(n1)n(C1CCOCC1)c(=O)n2C [AZD7648] + C[C@@H]1COCCN1C2=NC(=NC(=C2)C3(CC3)[S@](=N)(=O)C)C4=C5C=CNC5=NC=C4 [AZD6738] (first compound max 10 µM, 7x7, partner max 10 µM)	0.0717	-0.002	0.0076	0.0397	-0.0236	-0.0956	-0.0187	0.0093	0.0231	0.0439	0.0296	0.0038	0.0469	-0.0768	0.0801	-0.0817	0.053	0.0427	-0.096	-0.0068
CN(CCO)CC[C@H](CSc1ccccc1)Nc1ccc(S(=O)(=O)NC(=O)c2ccc(N3CCC([C@@H](O)c4ccccc4-c4ccc(Cl)cc4)CC3)cc2)cc1S(=O)(=O)C(F)(F)F [AZD4320] + Nc1ccn([C@@H]2O[C@H](CO)[C@@H](O)C2(F)F)c(=O)n1 [Gemcitabine] (first compound max 1 µM, 7x7, partner max 0.3 µM)	-0.0147	-0.0249	0.0093	0.0287	-0.0646	0.114	-0.0527	0.0417	-0.0645	-0.0204	-0.0349	0.0198	-0.0164	-0.0912	0.0199	0.0042	0.0353	-0.0209	0.0339	-0.033
C[C@@H](c1ccc2nccn2c1)n1nnc2ncc(-c3cnn(C)c3)nc21 [Savolitinib] + Cc1c2c(nn1C)CSCc1cc(n(C)n1)CSc1cc(c3ccccc3c1)OCCCc1c(C(=O)O)n(C)c3c-2c(Cl)ccc13 [AZD5991] (first compound max 1 µM, 7x7, partner max 1 µM)	0.0359	-0.0651	0.0354	-0.0473	-0.0858	-0.056	-0.0152	-0.0417	-0.0353	-0.0302	-0.0155	-0.0279	-0.0338	0.0027	0.003	-0.0082	-0.0454	0.0706	-0.0647	-0.0361
N#Cc1cnc(Nc2cc(NC[C@H]3CNCCO3)c(C(F)(F)F)cn2)cn1 [SRA737] + O=c1[nH]cc(F)c(=O)[nH]1 [5-Fluorouracil] (first compound max 10 µM, 7x7, partner max 20 µM)	0.0006	0.0272	0.108	0.0038	0.0472	0.0056	0.0184	0.0106	-0.0524	0.002	0.0349	-0.0266	0.059	0.0129	0.0629	-0.0476	-0.006	0.013	0.0157	0.0735
Cc1cc2ncnn2cc1Nc1ncc2c(n1)n(C1CCOCC1)c(=O)n2C [AZD7648] + CCN(CCO)CCCOc1ccc2c(Nc3cc(CC(=O)Nc4cccc(F)c4)[nH]n3)ncnc2c1 [AZD2811] (first compound max 10 µM, 7x7, partner max 1 µM)	-0.027	-0.0485	-0.0013	0.0039	-0.0345	-0.0582	-0.0315	0.0084	0.0156	-0.0649	-0.0401	-0.033	0.0171	0.0759	0.0723	-0.116	-0.0061	0.009	-0.0569	-0.0078
CN(CCO)CC[C@H](CSc1ccccc1)Nc1ccc(S(=O)(=O)NC(=O)c2ccc(N3CCC([C@@H](O)c4ccccc4-c4ccc(Cl)cc4)CC3)cc2)cc1S(=O)(=O)C(F)(F)F [AZD4320] + C1CN(CCC1(C(=O)N[C@@H](CCO)C2=CC=C(C=C2)Cl)N)C3=NC=NC4=C3C=CN4 [Capivasertib] (first compound max 1 µM, 7x7, partner max 3 µM)	-0.0318	-0.0238	-0.0534	0.0094	-0.0399	-0.0137	-0.0575	0.034	-0.034	-0.0839	-0.0648	-0.0279	-0.0592	-0.0013	-0.0237	-0.0659	-0.0827	0.0173	-0.0426	-0.0342
N#Cc1cnc(Nc2cc(NC[C@H]3CNCCO3)c(C(F)(F)F)cn2)cn1 [SRA737] + Nc1ccn([C@@H]2O[C@H](CO)[C@@H](O)C2(F)F)c(=O)n1 [Gemcitabine] (first compound max 10 µM, 7x7, partner max 0.3 µM)	0.0876		-0.0075	0.042	0.102	-0.0134	0.0039	-0.0355	0.102	0.0342	0.0299	-0.0073	0.0158	0.0278	0.0236	0.061	0.0169	0.0522	0.0238	0.0276
N#Cc1cnc(Nc2cc(NC[C@H]3CNCCO3)c(C(F)(F)F)cn2)cn1 [SRA737] + C=CCn1c(=O)c2cnc(Nc3ccc(N4CCN(C)CC4)cc3)nc2n1-c1cccc(C(C)(C)O)n1 [AZD1775] (first compound max 10 µM, partner max 1 µM)	0.0652	-0.0149	0.0927	-0.0048	0.03	-0.0097	0.0063	0.151	-0.0295	0.0807	-0.0046	-0.0293	0.194	0.0277	0.0756	0.0592		0.12	0.0316	-0.0105
Cc1c2c(nn1C)CSCc1cc(n(C)n1)CSc1cc(c3ccccc3c1)OCCCc1c(C(=O)O)n(C)c3c-2c(Cl)ccc13 [AZD5991] + Cn1cnc2c(F)c(Nc3ccc(Br)cc3Cl)c(C(=O)NOCCO)cc21 [Selumetinib] (first compound max 1 µM, 7x7, partner max 3 µM)	-0.0869	-0.0192	0.0055	-0.0396	0.064	-0.0167		0.106	-0.0194	-0.0338	-0.0258	-0.0276	0.0043		-0.003	0.0659	-0.0248	0.0167	0.0248	0.003
